Like-named read-outs stand apart in the source and are kept apart here.
Assays:
canine COX-1 = target: T1, canine COX-1 (Canis lupus familiaris, UniProt Q8HZR1); experiment: Canine COX-1 activity: washed canine platelets, A23187-stimulated TXB2 by EIA; format: cell-based, dog; conditions: results of repeated tests averaged
T1 construct: from tissue; host or cells: washed platelets from donor dog blood
T1 sequence (Q8HZR1 28-603): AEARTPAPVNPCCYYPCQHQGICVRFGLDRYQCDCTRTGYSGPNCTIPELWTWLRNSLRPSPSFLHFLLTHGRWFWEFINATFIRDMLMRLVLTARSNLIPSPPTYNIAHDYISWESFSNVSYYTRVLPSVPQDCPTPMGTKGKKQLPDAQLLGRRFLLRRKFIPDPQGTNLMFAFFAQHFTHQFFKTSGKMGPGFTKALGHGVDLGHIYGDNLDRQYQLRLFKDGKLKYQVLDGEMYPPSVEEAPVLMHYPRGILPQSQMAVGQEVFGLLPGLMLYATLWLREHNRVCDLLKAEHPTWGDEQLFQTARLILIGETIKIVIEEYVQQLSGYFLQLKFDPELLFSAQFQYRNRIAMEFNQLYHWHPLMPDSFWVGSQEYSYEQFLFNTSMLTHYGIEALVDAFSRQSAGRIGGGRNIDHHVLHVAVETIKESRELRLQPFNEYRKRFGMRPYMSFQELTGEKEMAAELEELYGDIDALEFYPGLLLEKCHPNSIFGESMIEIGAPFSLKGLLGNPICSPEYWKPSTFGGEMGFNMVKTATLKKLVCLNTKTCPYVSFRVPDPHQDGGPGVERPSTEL
Description: Protocol for Evaluation of Canine COX-1 Activity
Test drug compounds were solubilized and diluted the day before the assay was to be conducted with 0.1 mL of DMSO/9.9 mL of Hank's balanced salts solution (HBSS), and stored overnight at 4° C. On the day that the assay was carried out, citrated blood was drawn from a donor dog, centrifuged at 190×g for 25 min at room temperature, and the resulting platelet-rich plasma was then transferred to a new tube for further procedures. The platelets were washed by centrifuging at 1500×g for 10 min at room temperature. The platelets were washed with platelet buffer comprising Hank's buffer (Ca free) with 0.2% bovine serum albumin (BSA) and 20 mM HEPES. […] Then, 100 μl of canine washed platelets were added and the samples were incubated at 37° C. for 15 min, after which the reaction was stopped by adding 20 μl of 77 mM EDTA. The plates were then centrifuged at 2000×g for 10 min at […], after which 50 μl of supernatant was assayed for thromboxane B2 (TXB2) by enzyme-immunoassay (EIA).

canine COX-2 = target: T2, canine COX-2 (Canis lupus familiaris, UniProt Q8SPQ9); experiment: Canine COX-2 activity: LPS-treated DH82 canine histocytoma cells, PGE2 by EIA; format: cell-based, dog
T2 construct: host or cells: DH82 canine histocytoma cells, LPS-treated overnight
T2 sequence (Q8SPQ9 18-604): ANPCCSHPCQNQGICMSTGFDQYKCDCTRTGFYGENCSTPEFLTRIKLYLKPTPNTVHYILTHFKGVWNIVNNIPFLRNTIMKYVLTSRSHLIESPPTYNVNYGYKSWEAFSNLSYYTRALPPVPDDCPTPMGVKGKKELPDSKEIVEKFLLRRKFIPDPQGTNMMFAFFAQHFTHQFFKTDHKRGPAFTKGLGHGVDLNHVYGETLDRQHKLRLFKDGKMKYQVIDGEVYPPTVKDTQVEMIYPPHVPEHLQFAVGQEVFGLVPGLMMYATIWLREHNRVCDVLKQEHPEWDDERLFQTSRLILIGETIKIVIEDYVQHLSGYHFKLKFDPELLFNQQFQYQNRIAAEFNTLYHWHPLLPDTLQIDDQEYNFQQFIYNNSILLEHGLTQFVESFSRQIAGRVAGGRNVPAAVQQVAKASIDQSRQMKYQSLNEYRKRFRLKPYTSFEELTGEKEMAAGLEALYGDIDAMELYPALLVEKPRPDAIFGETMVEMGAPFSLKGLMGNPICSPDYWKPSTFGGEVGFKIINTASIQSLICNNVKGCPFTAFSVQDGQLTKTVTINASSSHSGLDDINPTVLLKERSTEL
Description: Protocol for Evaluation of Canine COX-2 Activity
A canine histocytoma (macrophage-like) cell line from the American Type Culture Collection designated as DH82, was used in setting up the protocol for evaluating the COX-2 inhibition activity of various test drug compounds. There was added to flasks of these cells 10 μg/mL of LPS, after which the flask cultures were incubated overnight. The same test drug compound dilutions as described above for the COX-1 protocol were used for the COX-2 assay and were prepared the day before the assay was carried out. […] The test sample suspensions were incubated for 1 hr and then centrifuged at 1000 rpm for 10 min at 4° C., after which 50 μl aliquots of each test drug sample were delivered to EIA plates. The EIA was performed for prostaglandin E2 (PGE2), and the pg/mL concentration of PGE2 was calculated from the standard line included on each plate. […] The results were averaged, and a single COX-1:COX-2 ratio was calculated.

[1] = dog, in vivo, po
Description: Following oral dosing to dogs of an immediate release carprofen formulation at a dose of 2 mg/lb, plasma carprofen concentrations were above 10 μg/mL for approximately 10.5 hr. In accordance with the present invention, 2 mg/lb/day is within the range of preferred doses of carprofen.
Immediate release carprofen dosage forms containing doses of 1.8, 1.6, and 1.4 mg/lb maintain a plasma carprofen concentration above 10 μg/mL for 9.5 hrs, 8.5 hrs, and 7.5 hrs, respectively.

[2] = target: T3, COX-1 (derived from bovine aortic endothelial cells) (Bos taurus, UniProt O62664); conditions: cited from earlier work
T3 construct: COX-1 (derived from bovine aortic endothelial cells); host or cells: bovine aortic endothelial cells (endogenous)
T3 sequence (O62664 25-600): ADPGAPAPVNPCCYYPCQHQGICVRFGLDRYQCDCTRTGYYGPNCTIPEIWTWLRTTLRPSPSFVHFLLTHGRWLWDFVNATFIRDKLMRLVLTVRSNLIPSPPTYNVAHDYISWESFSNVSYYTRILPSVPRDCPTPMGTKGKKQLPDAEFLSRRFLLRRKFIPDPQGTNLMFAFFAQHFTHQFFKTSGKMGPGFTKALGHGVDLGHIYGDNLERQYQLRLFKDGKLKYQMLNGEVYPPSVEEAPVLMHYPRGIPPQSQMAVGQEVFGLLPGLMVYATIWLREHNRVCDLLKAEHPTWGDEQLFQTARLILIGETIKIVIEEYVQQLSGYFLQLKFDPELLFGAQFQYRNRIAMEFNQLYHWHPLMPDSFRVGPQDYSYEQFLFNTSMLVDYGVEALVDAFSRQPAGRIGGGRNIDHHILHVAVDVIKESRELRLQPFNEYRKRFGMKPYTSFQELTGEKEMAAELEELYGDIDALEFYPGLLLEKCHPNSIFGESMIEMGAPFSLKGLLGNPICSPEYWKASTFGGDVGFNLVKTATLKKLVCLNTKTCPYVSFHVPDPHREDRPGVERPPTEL

## CC(C(=O)O)c1ccc2c(c1)[nH]c1ccc(Cl)cc12 (racemic) [Carprofen (rac.), 6-chloro-α-methyl-9H-carbazole-2-acetic acid]
Canine COX-1
  IC50: 13.2 µM
Canine COX-2
  IC50: 0.102 µM
[1]
  time plasma carprofen concentrations were above 10 μg/mL: approximately 10.5 hr
[2]; as shown by Battistini et al., read-out: IC50 (μM) COX-1
  IC50: 11 µM
[2]; n=9, bovine aortic endothelial cells, read-out: IC50 (μg/mL) COX-1 (converted)
  IC50: 11 µM
